For the test, the target named is Diazepam Receptor. In words: Diazepam Receptor Binding Assay in vitro (tritiated diazepam, rat fore-brain membranes). To be noted: membranes from rat fore-brain, 0°-5°, pH=7.5, determined graphically; read-out: IC50, concentration required to inhibit the specific binding of 2 nM of tritiated diazepam by 50%. How it is done: The anxiolytic effects of said new compounds can also be estimated by the Diazepam Receptor Binding Assay in vitro, e.g. as described in Nature 266, 732 (1977) or Proc. Nat. Acad. Sci. USA 74, 3805 (1977). Diazepam binds specifically and with high affinity to crude synaptosomal membrane preparations from rat fore-brain. […] When tritiated diazepam is used, the interaction of other drugs with said receptor can be readily assessed thus: Membranes from rat fore-brain are incubated at 0°-5° with tritiated diazepam and various concentrations of the test substances in a physiological medium at the pH=7.5. The membranes, containing the receptors with various amounts of tritiated diazepam, are filtered onto glass fiber filters, which are then […] in a liquid scintillation counter.

Structures are written as SMILES. pIC50: −log10 of the molar value.

As to `CN1C(=O)CN=C(c2ccccc2)c2cc(Cl)ccc21` [diazepam], the pIC50 was 8.30.

With `CNC1=Nc2ccc(Cl)cc2C(c2ccccc2)=[N+]([O-])C1` [chlordiazepoxide], the pIC50 was 6.40.

Values taken from US4312870A, “Pyrazoloquinolines” (Ciba-Geigy Corporation, priority 1980, dated 1982).
